Laboratory results: ChEMBL document CHEMBL1152055, “Synthesis and biological evaluation of four stereoisomers of PDMP-analogue, N-(2-decylamino-3-hydroxy-3-phenylprop-1-yl)--valienamine, and related compounds” (Bioorg Med Chem Lett, 1997)

What was measured:
[1] = molecular target: T1, Ceramide glucosyltransferase (Homo sapiens, UniProt Q16739); assay: Compound tested for inhibitory activity against glucosylceramide synthase enzyme at a concentration of 1.0*10e-4M; no inhibitory activity
T1 sequence (Q16739 whole entry): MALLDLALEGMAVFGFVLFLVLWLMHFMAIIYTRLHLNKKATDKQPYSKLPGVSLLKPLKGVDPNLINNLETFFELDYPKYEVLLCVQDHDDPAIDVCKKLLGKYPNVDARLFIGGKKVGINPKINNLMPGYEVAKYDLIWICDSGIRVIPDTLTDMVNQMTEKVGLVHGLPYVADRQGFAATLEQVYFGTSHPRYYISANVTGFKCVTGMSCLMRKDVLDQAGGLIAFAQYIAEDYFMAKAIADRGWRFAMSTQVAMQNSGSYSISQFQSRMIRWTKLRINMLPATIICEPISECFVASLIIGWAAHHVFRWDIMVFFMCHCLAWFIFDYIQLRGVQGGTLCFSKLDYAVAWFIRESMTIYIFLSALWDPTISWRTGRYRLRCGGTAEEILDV

[2] = molecular target: T2, Lysosomal acid glucosylceramidase (Mus musculus, UniProt P17439); assay: Compound tested for inhibitory activity against beta-glucocerebrosidase enzyme
T2 sequence (P17439 whole entry): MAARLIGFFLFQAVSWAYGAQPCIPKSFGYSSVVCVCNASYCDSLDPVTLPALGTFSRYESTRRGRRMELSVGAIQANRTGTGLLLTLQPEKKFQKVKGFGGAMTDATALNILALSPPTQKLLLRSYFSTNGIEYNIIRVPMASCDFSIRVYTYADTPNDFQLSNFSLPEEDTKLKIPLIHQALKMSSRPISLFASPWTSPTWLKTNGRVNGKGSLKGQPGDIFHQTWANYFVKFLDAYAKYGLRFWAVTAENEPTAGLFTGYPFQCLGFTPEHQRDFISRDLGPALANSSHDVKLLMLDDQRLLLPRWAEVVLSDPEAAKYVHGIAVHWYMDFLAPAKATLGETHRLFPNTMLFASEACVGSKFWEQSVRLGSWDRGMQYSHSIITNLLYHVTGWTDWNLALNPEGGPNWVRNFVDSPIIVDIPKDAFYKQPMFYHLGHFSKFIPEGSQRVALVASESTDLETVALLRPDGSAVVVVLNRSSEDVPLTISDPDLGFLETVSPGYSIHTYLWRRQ

[3] = molecular target: T2, Lysosomal acid glucosylceramidase; assay: Compound tested for inhibitory activity against beta-glucocerebrosidase enzyme at a concentration of 1.0*10e-4M; no inhibitory activity
[4] = molecular target: T1, Ceramide glucosyltransferase; assay: Compound tested for inhibitory activity against glucosylceramide synthase enzyme

SMILES	IC50 [1]	IC50 [2] [nM]	IC50 [3]	IC50 [4] [µM]
CCCCCCCCCC(=O)N[C@H](CN[C@H]1C=C(CO)[C@@H](O)[C@H](O)[C@@H]1O)[C@H](O)c1ccccc1	No inhibition	–	No inhibition	–
CCCCCCCCCC(=O)N[C@H](CN1CCOCC1)[C@H](O)c1ccccc1	–	–	No inhibition	23
CCCCCCCCCC(=O)N[C@@H](CNC1CC(CO)C(O)C(O)C1O)[C@@H](O)c1ccccc1 (stereo not given in full)	No inhibition	20000	–	–
CCCCCCCCCC(=O)N[C@H](CNC1CC(CO)C(O)C(O)C1O)[C@@H](O)c1ccccc1 (stereo not given in full)	No inhibition	7000	–	–
CCCCCCCCCC(=O)N[C@H](CNC1CC(CO)C(O)C(O)C1O)[C@H](O)c1ccccc1 (stereo not given in full)	No inhibition	10000	–	–

Continued by falling IC50 [2], values first:

IC50 [1]	IC50 [2] [nM]	IC50 [3]	IC50 [4] [µM]	SMILES
No inhibition	5000	–	–	CCCCCCCCCC(=O)N[C@@H](CNC1CC(CO)C(O)C(O)C1O)[C@H](O)c1ccccc1 (stereo not given in full)
No inhibition	700	–	–	CCCCCCCCCC(=O)N[C@H](CN[C@@H]1C=C(CO)[C@@H](O)[C@H](O)[C@@H]1O)[C@H](O)c1ccccc1
No inhibition	700	–	–	CCCCCCCCCC(=O)N[C@H](CN[C@@H]1C=C(CO)[C@@H](O)[C@H](O)[C@@H]1O)[C@@H](O)c1ccccc1
No inhibition	500	–	–	CCCCCCCCCC(=O)N[C@@H](CN[C@@H]1C=C(CO)[C@@H](O)[C@H](O)[C@@H]1O)[C@H](O)c1ccccc1
No inhibition	300	–	–	CCCCCCCCCC(=O)N[C@@H](CN[C@@H]1C=C(CO)[C@@H](O)[C@H](O)[C@@H]1O)[C@@H](O)c1ccccc1
